From patent publication US20240041042A1, “1-(PYRIDYL)-5-AZINYLPYRAZOLE DERIVATIVES, AND THEIR USE FOR CONTROL OF UNDESIRED PLANT GROWTH” (Bayer Aktiengesellschaft, priority 2020, published 2024)
Where two headings read alike, the source gives them in different places.

Legend:
Type in all cases: in vivo
[1] = system: Abutilon theophrasti (ABUTH); experiment: Pre-emergence herbicidal action against ABUTH; conditions: 100% = plants have died
In short: (§1)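 Greenhouse pot trial: seeds sown, soil-covered, sprayed before emergence with compound in water (0.5% additive; 600 l/ha; ≤320 g/ha). Scoring visual, ~3 weeks, 0–100% scale vs untreated.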

[2] = system: Alopecurus myosuroides (ALOMY); experiment: Pre-emergence herbicidal action against ALOMY; conditions: scored visually after about 3 weeks, 100% = plants have died
In short: as §1

[3] = system: Amaranthus retroflexus (AMARE); experiment: Pre-emergence herbicidal action against AMARE; conditions: visual scoring after about 3 weeks vs untreated controls
In short: as §1

[4] = system: Avena fatua (AVEFA); experiment: Pre-emergence herbicidal action against AVEFA; conditions: 320 g/ha, visual scoring after about 3 weeks vs untreated controls
In short: as §1

[5] = system: Echinochloa crus-galli (ECHCG); experiment: Pre-emergence herbicidal action against ECHCG
In short: as §1

[6] = system: Lolium rigidum (LOLRI); experiment: Pre-emergence herbicidal action against LOLRI
In short: as §1

[7] = system: Matricaria inodora (MATIN); experiment: Pre-emergence herbicidal action against MATIN
In short: as §1

[8] = system: Pharbitis purpurea (PHBPU); experiment: Pre-emergence herbicidal action against PHBPU
In short: as §1

[9] = system: Polygonum convolvulus (POLCO); experiment: Pre-emergence herbicidal action against POLCO
In short: as §1

[10] = system: Setaria viridis (SETVI); experiment: Pre-emergence herbicidal action against SETVI
In short: as §1

[11] = system: Verconica persica (VERPE); experiment: Pre-emergence herbicidal action against VERPE; conditions: dosage 320 g/ha
In short: as §1

[12] = system: Viola tricolor (VIOTR); experiment: Pre-emergence herbicidal action against VIOTR
In short: as §1

[13] = system: Abutilon theophrasti (ABUTH); experiment: Post-emergence herbicidal action against ABUTH; conditions: visual rating about 3 weeks after treatment vs untreated controls (100% = plants have died, 0% = like control plants)
In short: (§2)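 Doses of 320 g/ha or lower, suffixes a, b and c marking different dosages, were applied post-emergence at the one-leaf stage in 600 l/ha water with 0.5% additive. Damage was assessed visually after about 3 weeks in the greenhouse.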

[14] = system: Alopecurus myosuroides (ALOMY); experiment: Post-emergence herbicidal action against ALOMY; conditions: visual rating about 3 weeks after treatment vs untreated controls (100% = plants have died, 0% = like control plants)
In short: as §2

[15] = system: Amaranthus retroflexus (AMARE); experiment: Post-emergence herbicidal action against AMARE
In short: as §2

[16] = system: Avena fatua (AVEFA); experiment: Post-emergence herbicidal action against AVEFA; conditions: visual rating about 3 weeks after treatment
In short: as §2

[17] = system: Echinochloa crus-galli (ECHCG); experiment: Post-emergence herbicidal action against ECHCG
In short: as §2

[18] = system: Lolium rigidum (LOLRI); experiment: Post-emergence herbicidal action against LOLRI
In short: as §2

[19] = system: Matricaria inodora (MATIN); experiment: Post-emergence herbicidal action against MATIN
In short: as §2

[20] = system: Polygonum convolvulus (POLCO); experiment: Post-emergence herbicidal action against POLCO
In short: as §2

[21] = system: Setaria viridis (SETVI); experiment: Post-emergence herbicidal action against SETVI
In short: as §2

[22] = system: Verconica persica (VERPE); experiment: Post-emergence herbicidal action against VERPE
In short: as §2

[23] = system: Viola tricolor (VIOTR); experiment: Post-emergence herbicidal action against VIOTR
In short: as §2

[24] = system: Pharbitis purpurea (PHBPU); experiment: Post-emergence herbicidal action against PHBPU
In short: as §2

[25] = system: Oryza sativa (ORYSA); conditions: crop plant compatibility
In short: (§3)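 One-leaf-stage crops (2–3 wk post-sowing, sandy loam, greenhouse) sprayed on green parts; 0.5% additive, 600 l/ha water. Rated by eye ~3 wk later, % vs untreated; suffixes a/b/c mark different dosages.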

[26] = system: Zea mays (ZEAMX)
In short: as §3

[27] = Dosage column 320 g/ha (title prints 3200 g/ha), scored visually after about 3 weeks
[28] = 320 g/ha, visual rating about 3 weeks after treatment
[29] = 80 g/ha, effect in comparison to untreated controls

## CCOC(=O)COc1nn(-c2ccccn2)c(-c2ccc(F)nc2)c1Br [Example I-86]
[1]; 80 g/ha, scored visually after about 3 weeks vs untreated controls, 0% = like control plants
  Pre-emergence action against ABUTH: 80%
[1]; [27]
  Pre-emergence action against ABUTH: 100%
[2]; 80 g/ha
  Pre-emergence action against ALOMY: 100%
[2]; 320 g/ha
  Pre-emergence action against ALOMY: 100%
[3]; 80 g/ha
  Pre-emergence action against AMARE in %: 100%
[3]; 320 g/ha
  Pre-emergence action against AMARE in %: 100%
[4]
  Pre-emergence action against AVEFA in %: 90%
[5]; dosage 80 g/ha
  Pre-emergence action against ECHCG in %: 100%
[5]; dosage 320 g/ha
  Pre-emergence action against ECHCG in %: 100%
[6]; dosage 80 g/ha
  Pre-emergence action against LOLRI in %: 100%
[6]; dosage 320 g/ha
  Pre-emergence action against LOLRI in %: 100%
[7]; dosage 320 g/ha
  Pre-emergence action against MATIN in %: 100%
[8]; dosage 320 g/ha
  Pre-emergence action against PHBPU in %: 90%
[9]; dosage 320 g/ha
  Pre-emergence action against POLCO in %: 100%
[10]; dosage 80 g/ha
  Pre-emergence action against SETVI in %: 100%
[10]; dosage 320 g/ha
  Pre-emergence action against SETVI in %: 100%
[11]
  Pre-emergence action against VERPE in %: 90%
[12]; 320 g/ha, Viola tricolor
  Pre-emergence action against VIOTR in %: 100%
[12]; dosage 80 g/ha
  Pre-emergence action against VIOTR in %: 80%
[13]; 80 g/ha
  Post-emergence action against ABUTH in %: 90%
[13]; 320 g/ha
  Post-emergence action against ABUTH in %: 90%
[14]; 80 g/ha
  Post-emergence action against ALOMY in %: 100%
[14]; 320 g/ha
  Post-emergence action against ALOMY in %: 100%
[15]; [28]
  Post-emergence action against AMARE in %: 90%
[16]; 320 g/ha
  Post-emergence action against AVEFA in %: 100%
[17]; dosage 80 g/ha
  Post-emergence action against ECHCG in %: 100%
[17]; dosage 320 g/ha
  Post-emergence action against ECHCG in %: 100%
[18]; dosage 80 g/ha
  Post-emergence action against LOLRI in %: 100%
[18]; dosage 320 g/ha
  Post-emergence action against LOLRI in %: 100%
[19]; dosage 320 g/ha
  Post-emergence action against MATIN in %: 80%
[20]; dosage 320 g/ha
  Post-emergence action against POLCO in %: 90%
[21]; dosage 80 g/ha
  Post-emergence action against SETVI in %: 100%
[21]; dosage 320 g/ha
  Post-emergence action against SETVI in %: 100%
[22]; 320 g/ha, VERPE
  Post-emergence action against VERPE in %: 80%
[23]; 80 g/ha
  Post-emergence action against VIOTR in %: 80%
[23]; 320 g/ha
  Post-emergence action against VIOTR in %: 90%

## O=C(O)COc1nn(-c2nc(F)ccc2F)c(-c2cncc(F)c2)c1Br [Example I-207]
[1]; [27]
  Pre-emergence action against ABUTH: 80%
[2]; 320 g/ha
  Pre-emergence action against ALOMY: 80%
[3]; 80 g/ha
  Pre-emergence action against AMARE in %: 90%
[3]; 320 g/ha
  Pre-emergence action against AMARE in %: 100%
[4]
  Pre-emergence action against AVEFA in %: 80%
[5]; dosage 80 g/ha
  Pre-emergence action against ECHCG in %: 90%
[5]; dosage 320 g/ha
  Pre-emergence action against ECHCG in %: 100%
[7]; dosage 80 g/ha
  Pre-emergence action against MATIN in %: 90%
[7]; dosage 320 g/ha
  Pre-emergence action against MATIN in %: 90%
[8]; dosage 80 g/ha
  Pre-emergence action against PHBPU in %: 90%
[8]; dosage 320 g/ha
  Pre-emergence action against PHBPU in %: 90%
[9]; dosage 80 g/ha
  Pre-emergence action against POLCO in %: 90%
[9]; dosage 320 g/ha
  Pre-emergence action against POLCO in %: 100%
[10]; dosage 80 g/ha
  Pre-emergence action against SETVI in %: 80%
[10]; dosage 320 g/ha
  Pre-emergence action against SETVI in %: 100%
[11]
  Pre-emergence action against VERPE in %: 90%
[12]; 320 g/ha, Viola tricolor
  Pre-emergence action against VIOTR in %: 100%
[12]; dosage 80 g/ha
  Pre-emergence action against VIOTR in %: 100%
[13]; 320 g/ha
  Post-emergence action against ABUTH in %: 80%
[14]; 320 g/ha
  Post-emergence action against ALOMY in %: 90%
[15]; [28]
  Post-emergence action against AMARE in %: 80%
[17]; dosage 80 g/ha
  Post-emergence action against ECHCG in %: 80%
[17]; dosage 320 g/ha
  Post-emergence action against ECHCG in %: 80%
[19]; dosage 320 g/ha
  Post-emergence action against MATIN in %: 80%
[24]; dosage 80 g/ha
  Post-emergence action against PHBPU in %: 80%
[24]; dosage 320 g/ha
  Post-emergence action against PHBPU in %: 90%
[21]; dosage 80 g/ha
  Post-emergence action against SETVI in %: 90%
[21]; dosage 320 g/ha
  Post-emergence action against SETVI in %: 90%
[22]; 320 g/ha, VERPE
  Post-emergence action against VERPE in %: 90%
[22]; dosage 80 g/ha
  Post-emergence action against VERPE in %: 80%
[23]; 320 g/ha
  Post-emergence action against VIOTR in %: 80%
[25]; [29]
  Post-emergence action against ORYSA in %: 10%

## O=C(O)COc1nn(-c2ccccn2)c(-c2cncc(F)c2)c1Cl [Example I-81]
[1]; [27]
  Pre-emergence action against ABUTH: 90%
[2]; 80 g/ha
  Pre-emergence action against ALOMY: 80%
[2]; 320 g/ha
  Pre-emergence action against ALOMY: 100%
[3]; 80 g/ha
  Pre-emergence action against AMARE in %: 80%
[3]; 320 g/ha
  Pre-emergence action against AMARE in %: 90%
[4]
  Pre-emergence action against AVEFA in %: 80%
[5]; dosage 80 g/ha
  Pre-emergence action against ECHCG in %: 90%
[5]; dosage 320 g/ha
  Pre-emergence action against ECHCG in %: 100%
[6]; dosage 80 g/ha
  Pre-emergence action against LOLRI in %: 90%
[6]; dosage 320 g/ha
  Pre-emergence action against LOLRI in %: 100%
[7]; dosage 80 g/ha
  Pre-emergence action against MATIN in %: 80%
[7]; dosage 320 g/ha
  Pre-emergence action against MATIN in %: 90%
[8]; dosage 80 g/ha
  Pre-emergence action against PHBPU in %: 90%
[8]; dosage 320 g/ha
  Pre-emergence action against PHBPU in %: 100%
[9]; dosage 80 g/ha
  Pre-emergence action against POLCO in %: 90%
[9]; dosage 320 g/ha
  Pre-emergence action against POLCO in %: 90%
[10]; dosage 80 g/ha
  Pre-emergence action against SETVI in %: 90%
[10]; dosage 320 g/ha
  Pre-emergence action against SETVI in %: 100%
[11]
  Pre-emergence action against VERPE in %: 90%
[12]; 320 g/ha, Viola tricolor
  Pre-emergence action against VIOTR in %: 100%
[12]; dosage 80 g/ha
  Pre-emergence action against VIOTR in %: 80%
[13]; 80 g/ha
  Post-emergence action against ABUTH in %: 80%
[14]; 80 g/ha
  Post-emergence action against ALOMY in %: 90%
[15]; 80 g/ha, visual rating about 3 weeks after treatment vs untreated controls (100% = plants have died, 0% = like control plants)
  Post-emergence action against AMARE in %: 90%
[16]; 80 g/ha
  Post-emergence action against AVEFA in %: 90%
[17]; dosage 80 g/ha
  Post-emergence action against ECHCG in %: 90%
[19]; dosage 80 g/ha
  Post-emergence action against MATIN in %: 90%
[24]; dosage 80 g/ha
  Post-emergence action against PHBPU in %: 90%
[20]; dosage 80 g/ha
  Post-emergence action against POLCO in %: 80%
[21]; dosage 80 g/ha
  Post-emergence action against SETVI in %: 80%
[22]; dosage 80 g/ha
  Post-emergence action against VERPE in %: 90%
[25]; 20 g/ha, effect vs untreated controls
  Post-emergence action against ORYSA in %: 0%
[25]; [29]
  Post-emergence action against ORYSA in %: 0%
[26]; 20 g/ha, ZEAMX, effect in comparison to untreated controls
  Post-emergence action against ZEAMX in % (crop plant compatibility): 0%
[26]; crop plant compatibility, 80 g/ha, effect vs untreated controls
  Post-emergence action against ZEAMX in %: 0%
